Molecules are shown by their SMILES.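 The compound was tested at five concentrations on cells cultured in 96-well plates, with a 48-hour exposure period. GI50 = concentration required for 50% inhibition of growth. At the TGI there is no net growth.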 Where only a bound is given, the exact number is not on record here.

Some test systems named below: SF-268 CNS; NCI-H522 lung; NCI-H226 lung; HCT-15 colon; EKVX NSCLC; NCI-H460 lung; SF-295 CNS; CCRF-CEM leukemia; SNB-75 CNS; SR leukemia.
Common to all, as to experiment: NCI-60 cell line screen, 48 h

Turning to `Cc1ccc(-n2c3c(c4c(CN5CCOCC5)c(O)ccc42)CCc2ccccc2C3=O)cc1`, the GI50 is 73.7 µM in the test with SF-268 CNS; 34.5 µM in the test on NCI-H522 lung; 78.1 µM in the test with NCI-H226 lung; greater than 100 µM in the test on HCT-15 colon; greater than 100 µM with EKVX NSCLC; 65.8 µM in the test with NCI-H460 lung. For the same compound, the GI50 with SF-295 CNS was greater than 100 µM. Moreover, the TGI in the test on SF-268 CNS, with NCI-H522 lung, in the test on NCI-H226 lung, in the test on HCT-15 colon, in the test with EKVX NSCLC and in the test with NCI-H460 lung was greater than 100 µM in each case. In the test with SF-295 CNS, the TGI was greater than 100 µM.

As for `C=C(CNCCc1ccc(O)cc1)[C@@H]1CC[C@]2(CO)CC[C@]3(C)[C@H](CC[C@@H]4[C@@]5(C)CCC(N)C(C)(C)[C@@H]5CC[C@]43C)[C@@H]12` (stereo not given in full), the GI50 with SF-268 CNS is 1.52 µM; with CCRF-CEM leukemia, 0.28 µM; in the test with NCI-H522 lung, 1.76 µM; in the test with NCI-H226 lung it was 1.83 µM; with SNB-75 CNS, 1.24 µM; in the test with EKVX NSCLC it was 1.66 µM. In addition, the GI50 in the test with NCI-H460 lung was 1.51 µM; in the test on SF-295 CNS it was 1.73 µM. The TGI with SF-268 CNS is 3.03 µM; in the test with CCRF-CEM leukemia, 1.23 µM; in the test with NCI-H522 lung, 3.42 µM; in the test on NCI-H226 lung it was 3.78 µM; in the test on SNB-75 CNS, 2.49 µM; in the test with EKVX NSCLC it was 3.36 µM. The TGI worked out at 3.07 µM with NCI-H460 lung and 3.3 µM in the test with SF-295 CNS.

For `CC1=C(C(=O)CC(=O)C(=O)NC2C3CC4CC(C3)CC2C4)Sc2ccccc2N1` (stereo not given), the TGI is greater than 100 µM with SF-268 CNS; greater than 87.7 µM in the test on CCRF-CEM leukemia; greater than 100 µM in the test on NCI-H522 lung; greater than 100 µM in the test with SNB-75 CNS; greater than 100 µM with HCT-15 colon; greater than 100 µM in the test with EKVX NSCLC. For the same compound, the TGI in the test with NCI-H460 lung and with SF-295 CNS was greater than 100 µM throughout.

With `COc1ccc2[nH]c(-c3ccccc3)cc2c1`, the GI50 with SF-268 CNS was greater than 100 µM; in the test on CCRF-CEM leukemia it was 68.5 µM; in the test with NCI-H522 lung, 73.9 µM; with NCI-H226 lung, greater than 100 µM; in the test on SNB-75 CNS it was greater than 100 µM; in the test on HCT-15 colon, greater than 100 µM. Moreover, the GI50 was 59 µM with EKVX NSCLC, greater than 100 µM in the test with NCI-H460 lung and 84.7 µM in the test with SF-295 CNS. The TGI in the test on SF-268 CNS, in the test with CCRF-CEM leukemia, with NCI-H522 lung, with NCI-H226 lung, in the test on SNB-75 CNS and in the test with HCT-15 colon was greater than 100 µM in each case. Moreover, the TGI with EKVX NSCLC, in the test on NCI-H460 lung and in the test with SF-295 CNS was greater than 100 µM each time.

In the case of `O=C(/C=C/c1cn(-c2ccccc2)nc1-c1ccc([N+](=O)[O-])cc1)c1ccc(Cl)cc1`, the GI50 with SR leukemia is 2.76 µM; with SF-268 CNS it was 2.78 µM; in the test on NCI-H522 lung, 6.41 µM; in the test on SNB-75 CNS it was 1.65 µM; in the test on EKVX NSCLC, greater than 22.3 µM; in the test on SF-295 CNS, 2.68 µM. In addition, the TGI is greater than 100 µM in the test on SR leukemia; greater than 100 µM in the test with SF-268 CNS; greater than 100 µM in the test with NCI-H522 lung; greater than 100 µM with NCI-H226 lung; 4.84 µM in the test on SNB-75 CNS; greater than 100 µM in the test with EKVX NSCLC. Moreover, the TGI with SF-295 CNS came out at 12.3 µM.

Turning to `Cc1ccccc1NC(=O)C(=O)CC(=O)c1ccc([N+](=O)[O-])cc1`, the TGI in the test with SF-268 CNS, in the test with NCI-H226 lung, with SNB-75 CNS, with HCT-15 colon, with EKVX NSCLC and with NCI-H460 lung was greater than 100 µM each time. Besides, the TGI with SF-295 CNS is greater than 100 µM.

In the case of `CCOC(=O)C[C@@]12CCCNC1(C)CCc1ccccc12` (stereo not given in full), the TGI in the test with CCRF-CEM leukemia, with NCI-H226 lung, in the test on HCT-15 colon, in the test with EKVX NSCLC, in the test with NCI-H460 lung and with SF-295 CNS was greater than 100 µM in each case.

For the compound `CC(=O)[CH-]C(=O)c1ccccc1.CC(=O)[CH-]C(=O)c1ccccc1.[CH2-]CCC.[CH2-]CCC.[Sn+4]`, the GI50 with SF-268 CNS is 1.19 µM; with CCRF-CEM leukemia, 0.261 µM; in the test on NCI-H522 lung, 0.157 µM; in the test on NCI-H226 lung, 0.526 µM; with SNB-75 CNS, 0.352 µM; in the test on HCT-15 colon it was 1.29 µM. In addition, the results for the GI50 with EKVX NSCLC, in the test with NCI-H460 lung and in the test on SF-295 CNS were 1.41 µM, 2.11 µM and 1.51 µM, respectively. Further, the TGI with SF-268 CNS came out at 3.39 µM; with CCRF-CEM leukemia, 0.745 µM; with NCI-H522 lung it was 0.327 µM; with NCI-H226 lung it was 2.28 µM; in the test with SNB-75 CNS, 1.18 µM; in the test on HCT-15 colon, 2.87 µM. Further, the TGI came to 3.25 µM in the test with EKVX NSCLC, 4.62 µM in the test with NCI-H460 lung and 2.87 µM in the test with SF-295 CNS.

For the compound `CCN(CC)CCOc1ccc(/C=C2\CC3C4CC=C5C[C@@H](OC(C)=O)CC[C@]5(C)C4CC[C@]3(C)C2=O)cc1OC` (stereo not given in full), the GI50 is 4.14 µM in the test on SF-268 CNS; 14.4 µM in the test on NCI-H522 lung; 13.3 µM with NCI-H226 lung; 20.5 µM with SNB-75 CNS; 2.96 µM in the test with HCT-15 colon; 16.7 µM in the test on EKVX NSCLC. Besides, the GI50 in the test on SF-295 CNS was 2.02 µM. Besides, the TGI with SF-268 CNS came out at 18.4 µM; in the test on NCI-H522 lung, 33.1 µM; with NCI-H226 lung, 35.9 µM; in the test on SNB-75 CNS, 58.1 µM; with HCT-15 colon it was 10 µM; in the test on EKVX NSCLC it was 36.3 µM. In the test with SF-295 CNS, this compound displayed a TGI of 3.94 µM.

For the compound `O=C1C(c2ccccc2)=C(c2ccccc2)[C@H](c2ccccc2)[C@]1(Cc1nnn(-c2ccc([N+](=O)[O-])cc2)c1N1CCOCC1)c1ccccc1`, the TGI with CCRF-CEM leukemia, in the test with SNB-75 CNS, with HCT-15 colon, with EKVX NSCLC, in the test with NCI-H460 lung and in the test with SF-295 CNS was greater than 37.5 µM throughout.

For the compound `CC[P+]1(CC)CCCC1`, the TGI in the test with SF-268 CNS, in the test on CCRF-CEM leukemia, in the test on SNB-75 CNS, in the test on HCT-15 colon, in the test on EKVX NSCLC and in the test on NCI-H460 lung was greater than 100 µM throughout. Besides, in the test on SF-295 CNS, the TGI was greater than 100 µM.

In the case of `COc1cc(O)c(C(C)=O)c(O)c1`, the TGI in the test with SR leukemia, in the test with SF-268 CNS, in the test with NCI-H522 lung, in the test with SNB-75 CNS, with HCT-15 colon and with EKVX NSCLC was greater than 100 µM each time. Further, the TGI with NCI-H460 lung and with SF-295 CNS was greater than 100 µM throughout.

The values are drawn from PubChem BioAssay (NCI).
